Patent publication US6211215A, “Heterocyclic compounds, their production and use” (Takeda Chemical Industries, Ltd., priority 1996, dated 2001)
pIC50: −log10 of the molar value.

Legend:
[1] = tested on: MDA-MB-453; experiment: In vitro inhibition of cell proliferation (1); type: cell-based; conditions: Homo sapiens, 72 h; Breast cancer MDA-MB-453; 3 days; SRB
Method: (§1) 100 μl (containing 2,000 cells) of a cell suspension of human breast cancer cell line MDA-MB-453 was seeded in each well of the 96-well microtiter plates. The cultures were incubated at 37° C. in a 5% carbon dioxide gas incubator. On the next day, 100 μl of the 2-fold serial dilution of each compound solution was added to each well and the mixtures were cultured for 3 days. The solution containing the compound was removed and the cells were washed with water. To the cells was added a 0.4% (W/V) dye SRB (dissolved in 1% acetic acid) solution to fix and stain the cell protein (Skehan P. et al., Journal of the National Cancer Institute Vol.82, pp.1107-1112, 1990). The dye solution was removed and the fixed and stained cell protein was washed. The protein-bound dye was extracted with 200 μl of 10 mM Tris buffer. The optical density of the extracted dye was determined at the wavelength of 540 nm to estimate the quantity of the cells in terms of the protein quantity. Designating the protein quantity in the control to which no compound solution was added as 100%, the proportion of the residual protein quantity in each treated group was calculated, and IC50, which was concentration of the compound required to inhibit the residual protein quantity to 50% the quantity of the control, was calculated.

[2] = molecular target: T1, HER2 (Homo sapiens, UniProt P04626); experiment: Inhibition of the activity of human growth factor receptor (HER2) tyrosine kinase; type: biochemical; parameters: the tyrosine kinase domain of the human HER2 gene was cloned; made in house; host or cells: insect cell line SF-21 (recombinant insect virus vector); conditions: HER2 receptor type tyrosine kinase; ELISA with HER3 substrate; read-out: Concentration of inhibiting HER2 (IC50)
Excerpt: As enzyme standard, the tyrosine kinase domain of the human HER2 gene was cloned to prepare the recombinant gene of insect virus vector, with which the insect cell line SF-21 was infected to produce an enzyme protein (Guy P. M. et al., Journal of Biological Chemistry Vol. 267, pp.13851-13856, 1992). As substrate, the phosphorylated tyrosine domain of the HER3 protein was cloned to prepare the recombinant gene of plasmid vector with which Escherichia Coli strain JM109 was infected to give an enzyme protein (Sierke S. L. et al., Biochemistry Vol. 32, pp.10102-10108, 1993). The enzymatic reaction was performed by the enzyme-linked immunological method which consisted of fixing the substrate protein in wells of a 96-well microtiter plate, adding the enzyme into the wells and quantitating phosphorylated tyrosine, which was the reaction product, by use of the anti-phosphorylated tyrosine antibody (Cleaveland J. S. et al., Analytical Biochemistry Vol. 190, pp249-253, 1990).
Target sequence in this assay (P04626 720-987 limits assumed): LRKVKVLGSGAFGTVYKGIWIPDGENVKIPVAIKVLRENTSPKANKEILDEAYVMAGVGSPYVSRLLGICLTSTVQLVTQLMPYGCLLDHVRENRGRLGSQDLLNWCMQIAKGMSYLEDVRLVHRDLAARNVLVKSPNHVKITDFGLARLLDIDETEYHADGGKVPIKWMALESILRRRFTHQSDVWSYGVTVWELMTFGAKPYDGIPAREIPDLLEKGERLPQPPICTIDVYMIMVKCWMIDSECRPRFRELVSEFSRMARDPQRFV

[3] = tested on: MDA-MB-453; experiment: In vitro inhibition of cell proliferation (2); type: cell-based; conditions: Homo sapiens, 72 h; Breast cancer MDA-MB-453; 3 days; SRB
Method: as §1

[4] = tested on: LNCaP; experiment: Selective in vitro inhibition of breast cancer and prostate cancer cell growth; type: cell-based; conditions: Homo sapiens, 72 h; Prostate cancer LNCaP; 3 days; SRB; read-out: IC50, inhibition of cell proliferation
Method: (§2) 100 μl (containing 2,000 cells) of a cell suspension of various human cancer cell lines shown in [Table 7] was seeded in each well of the 96-well microtiter plates. The cells were incubated at 37° C. in a 5% carbon dioxide gas incubator. Next day, 100 μl of a 2 fold serial dilution of a compound solution was added to each well. The cultures were incubated for 3 days. The solution containing the compound was removed and the cells were washed with water. To the cells was added a 0.4% (V/W) dye SRB (dissolved in 1% acetic acid) solution to fix and stain the cell protein. The dye solution was removed and the fixed and stained cell protein was washed. The protein-bound dye was extracted with 200 μl of 10 mM Tris buffer. The optical density of the extracted dye was determined at the wavelength of 540 nm to estimate the quantity of the cells in terms of the protein quantity. Designating the protein quantity in the control to which no compound solution was added as 100%, the proportion of the residual protein quantity in each treated group was calculated, and IC50, which was the concentration of the compound required to inhibit the residual protein quantity to 50% the quantity of the control, was calculated.

[5] = tested on: MCF-7; experiment: as above; type: cell-based; conditions: Homo sapiens, MCF7, 72 h; Breast cancer MCF-7; 3 days; SRB; read-out: IC50, inhibition of cell proliferation
Method: as §2

[6] = tested on: MDA-MB-453; experiment: as above; type: cell-based; conditions: Homo sapiens, 72 h; Breast cancer MDA-MB-453; 3 days; SRB; read-out: IC50, inhibition of cell proliferation
Method: as §2

[7] = tested on: MRC5; experiment: as above; type: cell-based; conditions: Homo sapiens, 72 h; Normal MRC5; 3 days; SRB; read-out: IC50, inhibition of cell proliferation
Method: as §2

[8] = tested on: PC3; experiment: as above; type: cell-based; conditions: Homo sapiens, PC-3, 72 h; Prostate cancer PC3; 3 days; SRB; read-out: IC50, inhibition of cell proliferation
Method: as §2

[9] = tested on: T-47D; experiment: as above; type: cell-based; conditions: Homo sapiens, T47D, 72 h; Breast cancer T-47D; 3 days; SRB; read-out: IC50, inhibition of cell proliferation
Method: as §2

[10] = tested on: human breast cancer cell line, MDA-MB-453; experiment: In vivo mammary cancer inhibiting effect (2); parameters: species or system female Balb/C strain athymic nude mice; conditions: oral, gained tumor volume vs control
Method: 5,000,000 cells of human breast cancer cell line, MDA-MB-453, were suspended in a gelmatrix solution. The suspension was subcutaneously implanted at the breast in 7-week-old female Balb/C strain athymic nude mice (Friedman R. et al., Proceedings of the National Academy of Sciences of the U.S.A. Vol. 87, pp.6698-6702, 1990). Twelve days after the implantation, the diameters of tumors were determined. For the experiment were used 5 mice per group with similar tumor size. Compound 72 or 109 of the present invention was suspended in a 5% gum arabic solution (physiological saline) and administered orally twice daily in dose of 60 mg/kg or 90 mg/kg body weight for 10 days. On the day when the dosing was ended, the diameters of tumors were measured. Tumor volume was calculated by the following formula: volume of tumor=longest diameter×shortest diameter×shortest diameter×1/2. The growth rate of tumors was obtained as the proportion of the gained tumor volume which was substracted the initial volume from the final volume in the treated animals to the gained tumor volume which was substracted the initial volume from the final volume in the control animals. The body weights of mice administered with compounds of the present invention were measured during the experiment to observe no decrease.

[11] = tested on: human prostatic cancer cell line, LNCaP; experiment: In vivo inhibition of prostate cancer (1); parameters: species or system male Balb/C-strain athymic nude mice; conditions: for Tumor growth rate (%): oral, gained tumor volume vs control; for Inhibition of implanted tumor growth: LNCaP, athymic nude mice
Method: 5,000,000 cells of human prostatic cancer cell line, LNCaP, were suspended in a gelmatrix solution and implanted subcutaneously at the breast in 8-week old male Balb/C-strain athymic nude mice (Friedman R. et al., Proceedings of the National Academy of Sciences of the U.S.A. Vol. 87, pp.6698-6702, 1990). 42 days (in the case of compound 72) or 57 days (in the case of compound 109) after the implantation, the diameters of tumors were measured. Five mice per group with similar tumor size were used for the experiment. Compounds 72 or 109 of the present invention was suspended in a 5% gum arabic solution (physiological saline) and administered orally twice daily in a dose of 60 mg/kg and 90 mg/kg body weight for 10 days. After the completion of the dosing, the diameters of tumor were measured. The tumor volume was calculated by the following formula: volume of tumor=longest diameter×shortest diameter×shortest diameter×1/2. The growth rate of tumors was obtained as the proportion of the gained tumor volume which was subtracted the initial volume from the final volume in the treated animals to the gained tumor volume which was subtracted the initial volume from the final volume in the control animals. The body weights of mice administered with compounds of the present invention were measured during the experiment to observe no decrease.

[12] = molecular target: T1, HER2; experiment: Inhibition of phosphorylation of receptor tyrosine in human breast cancer cells (2), MCF-7, heregulin-stimulated; type: cell-based; parameters: Human breast cancer cell line MCF-7 was used; endogenous in cells; host or cells: MCF-7; conditions: heregulin control = 100%, read-out: Phosphorylation of receptor tyrosine residue (%); for activity at 0.4 µM: MCF7, 0.4 μM; for activity at 1.6 µM: MCF7, 1.6 μM; for activity at 6.3 µM: MCF7, 6.3 μM; for activity at 25 µM: MCF7, 25 μM
Method: Human breast cancer cell line MCF-7 was used. 1,000 μl of the cell suspension (250,000 cells) was seeded in each well of the 24-well plates. The culture were incubated at 37° C. in a 5% carbon dioxide gas incubator. On the next day, 100 μl of the 10-fold serial dilution of each compound solution was added to each well and, 2 hours later, 0.5 μg/ml of heregulin was added to it. After 5 minutes the extract solution was added to it to terminate the reaction, and the protein fraction was extracted. The protein was fractionated by the protein electrophoresis. The protein in the electrophoretic gel was transferred to a nylon filter. The filter was allowed to react with the phosphorylated tyrosine-specific antibody. The reaction product was fluorescence-labeled to expose a photofilm. The intensity of the exposure on the photofilm was quantitated by an image-analyzing apparatus. The proportion of the phosphorylation of HER2 tyrosine in the cells added with a compound solution of each concentration was calculated designating the phosphorylation of HER2 tyrosine in the heregulin-added cells as 100%.
Target sequence in this assay (P04626 23-1255): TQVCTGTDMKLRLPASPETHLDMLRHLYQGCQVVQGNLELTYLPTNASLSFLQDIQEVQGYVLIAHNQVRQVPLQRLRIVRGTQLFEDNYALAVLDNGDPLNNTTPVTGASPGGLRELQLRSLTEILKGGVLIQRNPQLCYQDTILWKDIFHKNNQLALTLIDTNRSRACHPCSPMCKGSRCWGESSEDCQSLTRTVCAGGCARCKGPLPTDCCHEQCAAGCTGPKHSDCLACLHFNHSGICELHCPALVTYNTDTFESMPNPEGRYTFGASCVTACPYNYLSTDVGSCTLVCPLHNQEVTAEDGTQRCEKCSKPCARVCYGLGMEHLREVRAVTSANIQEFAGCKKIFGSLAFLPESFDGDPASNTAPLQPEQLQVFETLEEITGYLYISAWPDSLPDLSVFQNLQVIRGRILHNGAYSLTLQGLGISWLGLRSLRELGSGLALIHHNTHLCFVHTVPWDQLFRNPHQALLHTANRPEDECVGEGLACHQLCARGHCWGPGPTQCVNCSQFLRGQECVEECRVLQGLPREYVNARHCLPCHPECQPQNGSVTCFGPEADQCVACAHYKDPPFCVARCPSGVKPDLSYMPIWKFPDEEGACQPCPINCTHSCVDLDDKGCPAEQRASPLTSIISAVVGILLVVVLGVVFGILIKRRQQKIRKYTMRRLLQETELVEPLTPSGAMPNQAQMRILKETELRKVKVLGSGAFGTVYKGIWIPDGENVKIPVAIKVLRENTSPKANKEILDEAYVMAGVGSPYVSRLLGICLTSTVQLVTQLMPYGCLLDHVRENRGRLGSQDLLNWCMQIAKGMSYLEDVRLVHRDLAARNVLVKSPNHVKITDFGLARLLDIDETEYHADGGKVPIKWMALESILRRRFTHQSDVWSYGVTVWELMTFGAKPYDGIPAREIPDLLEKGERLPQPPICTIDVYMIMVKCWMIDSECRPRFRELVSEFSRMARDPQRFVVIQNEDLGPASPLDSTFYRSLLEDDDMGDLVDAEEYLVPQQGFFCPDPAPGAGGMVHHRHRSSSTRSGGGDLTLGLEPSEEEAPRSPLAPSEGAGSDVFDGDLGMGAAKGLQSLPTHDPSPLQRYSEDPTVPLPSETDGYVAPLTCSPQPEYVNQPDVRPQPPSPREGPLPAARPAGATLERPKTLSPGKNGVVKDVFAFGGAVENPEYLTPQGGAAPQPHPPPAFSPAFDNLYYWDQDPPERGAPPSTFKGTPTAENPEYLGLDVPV

[13] = tested on: human epidermal carcinoma cell line A431; conditions: Journal of Antibiotics, Vol.39, p.170, 1986; cited from earlier work
[14] = tested on: human squamous cell carcinoma MH-85; conditions: Cancer Research, Vol.51, p.4430, 1991; cited from earlier work
[15] = 120 mg/kg/day, 60 mg/kg twice daily for 10 days
[16] = 180 mg/kg/day, 90 mg/kg twice daily for 10 days

SMILES | pIC50 [1] | pIC50 [2] | pIC50 [3] | pIC50 [4] | pIC50 [5] | pIC50 [6] | pIC50 [8] | pIC50 [9] | activity at 0.4 µM [12] | activity at 1.6 µM [12] | activity at 6.3 µM [12] | activity at 25 µM [12] | pIC50 [7] | Tumor growth rate (%) [10, 15] | Tumor growth rate (%) [10, 16] | Tumor growth rate (%) [11, 15] | Tumor growth rate (%) [11, 16] | Inhibition of implanted tumor growth [11] | Inhibition of proliferation [13] | Antitumor activity in vivo [14]
C(=C\c1nc(COc2ccc(CCCCn3cncn3)cc2)co1)/c1ccccc1 [Compound 2, 1-[4-[4-[2-[(E)-2-phenylethenyl]-4-oxazolylmethoxy]phenyl]butyl]-1,2,4-triazole] | 6.18 | 4.17 | – | – | – | – | – | – | – | – | – | – | – | – | – | – | – | – | – | –
O=CN/C=C/c1cc(O)ccc1O [erbstatin] | – | – | – | – | – | – | – | – | – | – | – | – | – | – | – | – | – | – | inhibits proliferation of human epidermal carcinoma cell line A431 | –
COc1cc2ncnc(Nc3cccc(Cl)c3)c2cc1OC [tyrphostin] | – | – | – | – | – | – | – | – | – | – | – | – | – | – | – | – | – | – | – | has antitumor activity

The next lines start with results.

pIC50 [1] | pIC50 [2] | pIC50 [3] | pIC50 [4] | pIC50 [5] | pIC50 [6] | pIC50 [8] | pIC50 [9] | activity at 0.4 µM [12] | activity at 1.6 µM [12] | activity at 6.3 µM [12] | activity at 25 µM [12] | SMILES | pIC50 [7] | Tumor growth rate (%) [10, 15] | Tumor growth rate (%) [10, 16] | Tumor growth rate (%) [11, 15] | Tumor growth rate (%) [11, 16] | Inhibition of implanted tumor growth [11] | Inhibition of proliferation [13] | Antitumor activity in vivo [14]
– | – | 5.77 | 5.10 | 6.21 | 5.77 | 5.02 | 5.46 | 96% | 48% | 19% | 7% | c1csc(-c2nc(COc3ccc(CCCn4ccnc4)cc3)co2)c1 [Compound 72, 4-[4-[3-(1-imidazolyl)propyl]phenoxymethyl]-2-(2-thienyl)oxazole] | < 4.60 | 84% | 71% | 91% | 57% | inhibiting tumor growth of hormone dependent prostate cancer LNCaP | – | –
– | – | 7.05 | 5.80 | 8.00 | 7.05 | 5.19 | – | 46% | 40% | 34% | – | c1csc(-c2nc3cc(COc4ccc(CCCCn5ccnc5)cc4)ccc3o2)c1 [Compound 80, 5-[4-[4-(1-imidazolyl)butyl]phenoxymethyl]-2-(2-thienyl)benzoxazole] | < 4.60 | – | – | – | – | – | – | –
– | – | 5.32 | 5.25 | 5.96 | 5.32 | 4.82 | – | 93% | 86% | 45% | 25% | c1csc(-c2nc(COc3ccc(CCCn4ccnc4)cc3)cs2)c1 [Compound 94, 4-[4-[3-(1-imidazolyl)propyl]phenoxymethyl]-2-(2-thienyl)thiazole] | < 4.60 | – | – | – | – | – | – | –
– | – | 5.60 | 4.96 | 6.72 | 5.60 | 4.80 | – | 92% | 89% | 43% | 31% | Cc1ccc(-c2nc(COc3ccc(CCCn4ccnc4)cc3)co2)s1 [Compound 109, 4-[4-[3-(1-imidazolyl)propyl]phenoxymethyl]-2-(5-methyl-2-thienyl)oxazole] | < 4.60 | 35% | – | 28% | – | inhibiting tumor growth of hormone dependent prostate cancer LNCaP | – | –
